From BindingDB's records for doi:10.1016/j.ejmech.2017.08.029 (Emory University, 2017) come the findings set out here.

Each structure is given as a SMILES string.

The nature of the assay: Inhibition of human GLUT1 in human KMS11 cells over-expressing human GLUT1 assessed as as inhibition of receptor-mediated cell proliferation after 72 hrs by CellTiter-Glo assay. Background: Cellular ATP, detected with luciferase, serves as a proxy for viable cell number.
A word on the IC50: it is the concentration that inhibits the measured activity by half. Turning to `COc1ccc(C(=O)N(Cc2ccncc2)Cc2cccc(OCCc3cccc(C(F)(F)F)c3)c2)cc1`, the half-maximal inhibitory concentration (IC50) is 15.1 µM.

Regarding `COc1ccc(C(=O)N(Cc2ccncc2)Cc2cccc(OCc3ccc(C(F)(F)F)cc3)c2)cc1`, the IC50 is 16.8 µM.

For the molecule `COc1ccc(C(=O)N(Cc2ccncc2)Cc2cccc(OCc3cccc(OC)c3)c2)cc1`, the IC50 is 28.5 µM.

Turning to `COc1ccc(C(=O)N(Cc2ccncc2)Cc2cccc(OCCc3ccc(Br)cc3)c2)cc1`, the IC50 was 6.5 µM.

As for `COc1ccc(C(=O)N(Cc2ccncc2)Cc2cccc(OCC3CCCCC3)c2)cc1`, the IC50 turned out to be 16 µM.

Take `O=C(c1ccc(Cl)cc1)N(Cc1ccncc1)Cc1cccc(OCCc2ccc(F)cc2)c1`: the half-inhibitory concentration (IC50) stood at 15.6 µM.

Consider `COc1ccc(C(=O)N(Cc2ccncc2)Cc2cccc(OCC(=O)c3cccc(Br)c3)c2)cc1`, for which the 50% inhibitory concentration (IC50) is 21.4 µM.

On to `COc1ccc(C(=O)N(Cc2ccncc2)Cc2cccc(OCc3ccc(F)cc3)c2)cc1`, for which the IC50 was found to be 28.6 µM.

As to `COc1ccc(C(=O)N(Cc2ccncc2)Cc2cccc(OCc3ccc([N+](=O)[O-])cc3)c2)cc1`, the concentration for half-maximal inhibition (IC50) worked out at 11.7 µM.

For `COc1ccc(C(=O)N(Cc2ccncc2)Cc2cccc(OCCc3ccccc3)c2)cc1`, the IC50 was 21 µM.

With `COc1ccc(C(=O)N(Cc2ccncc2)Cc2cccc(OCC3CCOCC3)c2)cc1`, the IC50 stood at 25.8 µM.

Turning to `COc1ccc(CC(=O)N(Cc2ccncc2)Cc2cccc(OCCc3ccc(F)cc3)c2)cc1`, the half-inhibitory concentration (IC50) came out at 21.8 µM.

Regarding `COc1ccc(C(=O)N(Cc2ccncc2)Cc2cccc(OCCc3ccc(C)cc3)c2)cc1`, the 50% inhibitory concentration (IC50) amounted to 12.7 µM.

Consider `COc1ccc(C(=O)N(Cc2ccncc2)Cc2cccc(OCC(=O)c3ccc(Cl)cc3)c2)cc1`, for which the concentration for half-maximal inhibition (IC50) worked out at 16.9 µM.
